{
  "source": "patent US20100143270A1",
  "about": "“THERAPEUTIC COTININE COMPOSITIONS” (University of Louisville Research Foubdation, priority 2007, published 2010)",
  "key": {"[1]": {"tested_on": "P. gingivalis-stimulated human monocytes", "test": "TNF release by P. gingivalis-stimulated human monocytes (ELISA)", "assay_type": "cell-based", "details": "for TNF release compared to cells stimulated with P. gingivalis alone: 2 h pre-treatment with nicotine or cotinine, P. gingivalis MOI=10 for 20 h, dose-dependent"}, "[2]": {"tested_on": "LPS-stimulated monocytes", "test": "Pro-inflammatory cytokine release by LPS-stimulated human monocytes (ELISA)", "assay_type": "cell-based", "description": "FIGS. 3A-3E. […] Monocytes were pre-treated with cotinine (1000 ng/ml) for 2 hours then stimulated with purified LPS (0 to 1×10^4 ng/ml) for 24 hours.\nFIGS. 6A-6E. […] Cells were pre-treated with nicotine or cotinine (100 and 1000 ng/ml, respectively) for 2 hours then stimulated with purified LPS (0 to 1×10^4 ng/ml) for 24 hours. […] FIG. 6A provides data for IFNγ; FIG. 6B provides data for IL-1β, FIG. 6C provides data for IL-6, FIG. 6D provides data for TNF-α, and FIG. 6E provides data for IL-12/IL-23 p40.\nCotinine inhibited the production and release of multiple pro-inflammatory cytokines by monocytes stimulated with Toll-like receptor (TLR)-agonists in a dose-dependent manner. Cells were pre-treated with cotinine for 2 hours then stimulated with a TLR-agonist (purified LPS, 0 to 1×10^4 ng ml^−1) for 24 hours.\nInflammatory response of cotinine-exposed monocytes to P. gingivalis and LPS: In an initial series of experiments, we determined how physiological doses of nicotine and cotinine influenced levels of TNF secreted by monocytes stimulated with LPS. Human monocytes were pre-treated for 90 minutes with nicotine (1 to 1,000 ng/ml; Sigma-Aldrich, Inc.) or cotinine (1 to 10,000 ng/ml; Sigma-Aldrich, Inc.), then stimulated with purified E. coli K-12 LPS (0 to 10 μg/ml; InVivoGen™, San Diego, Calif.). TNF concentrations in 24 hr supernatants were measured by ELISA (eBioscience, San Diego, Calif.). Subsequently, the concentrations of multiple cytokines in 24 hr supernatants of cotinine pre-incubated (1000 ng/ml) LPS-([…]) stimulated monocytes were measured by ELISA (IFN-γ (PBL Biomed Labs, Piscataway, N.J.), IL-1β, IL-6, TNF, IL-10 (all eBioscience), and IL-12/IL-23 p40 (R&D Systems, Minneapolis, Minn.).\nPrimary monocytes were pre-treated with nicotine (0-100 ng ml^−1) or cotinine (0-1000 ng ml^−1) then stimulated with the Gram negative periodontal pathogen P. gingivalis (MOI=0-10); purified E. coli K-12 LPS (0-1 μml^−1; InVivoGen™, San Diego, Calif.); or purified P. gingivalis 33277 LPS for 20 h. Primary monocytes were also pre-treated with cotinine (100 ng ml^−1) then stimulated with increasing doses of LPS for 20 h. Cell-free supernatants were harvested by centrifugation and cytokine levels (TNF, IL-6, IL-10, IL-12/IL-23 p40, as appropriate) were determined by ELISA (eBioscience, San Diego, Calif. or R&D Systems, Minneapolis, Minn.)."}, "[3]": {"tested_on": "LPS-stimulated monocytes", "test": "IL-10 release by LPS-stimulated human monocytes (ELISA)", "assay_type": "cell-based"}, "[4]": {"tested_on": "NF-κB", "test": "NF-κB-inducible SEAP reporter in LPS-stimulated THP-1 Blue cells", "assay_type": "cell-based", "details": "cotinine 100 ng ml^−1 2 h, LPS 1 μg ml^−1 24 h", "description": "(§1) FIG. 11. The anti-inflammatory potential of cotinine is a GSK-3β-dependent but NF-κB-independent phenomenon. THP-1 Blue cells are stably transfected with a reporter plasmid expressing secreted embryonic alkaline phosphatase (SEAP) gene under the control of a NF-κB-inducible promoter. […] Cell-free supernatants were harvested by centrifugation and relative expression levels of SEAP (reflecting NF-κB; THP-1 Blue; circles) and IL-10 (THP-1; bars) were determined by spectrophotometric analysis of SEAP activity and ELISA, respectively.\n(§2) THP-1 Blue cells are monocyte-like cells that have been stably transfected with a reporter plasmid expressing secreted embryonic alkaline phosphatase (SEAP) gene under the control of a NF-κB-inducible promoter. […] Cell-free supernatants were harvested by centrifugation and relative expression levels of NF-κB and IL-10 were determined by spectrophotometric analysis of SEAP activity and ELISA, respectively."}, "[5]": {"tested_on": "THP-1 cells", "test": "IL-10 release by LPS-stimulated THP-1 cells (ELISA)", "assay_type": "cell-based", "description": "as §1, §2\nLevels of phosphorylated Akt and phoshorylated GSK-3β following cotinine (0-100 ng ml^−1) and/or E. coli LPS (1 μg ml^−1) treatment were determined by western blot using whole-cell lysates (20 μg) with probing for Akt using a phospho-specific Akt (Ser473) antibody; probing for GSK-3β using a phospho-specific GSK-3β (Ser9; denoted pGSK-3β) antibody; with the blots stripped and re-probed for total p38 to ensure equivalent loading. Antibodies were purchased from Cell Signaling, Beverly, Mass. Blots were visualized by enhanced chemiluminescence. The importance of the PI3K-dependent anti-inflammatory pathway in cotinine-induced inflammatory suppression was also established by pharmacological inhibition of PI3K and GSK-3β using the PI3K antagonists LY294002 (25 μM; Calbiochem®, San Diego, Calif.) and wortmannin (100 nM, Calbiochem); and the GSK-3β inhibitor SB216763 (6 μM; Sigma). […] Therefore, cells were also analyzed for cotinine-induced PI3K activation by, assaying the ability of PI3K to produce PIP3. Levels of PIP3 were determined by ELISA using a competitive inhibition assay (Echelon Bioscience, Salt Lake City, Utah). […]"}, "[6]": {"tested_on": "THP-1 or THP-1 Blue cells", "test": "Viability of THP-1 or THP-1 Blue cells", "assay_type": "cell-based", "details": "cotinine 100 ng ml^−1"}, "[7]": {"tested_on": "PI3K", "test": "PI3K activation in monocytes measured as PIP3 (competitive ELISA)", "assay_type": "cell-based, human", "details": "LPS 1 μg ml^−1 60 minutes"}, "[8]": {"tested_on": "Akt (Ser473)", "test": "Phosphorylated Akt western blot in monocytes", "assay_type": "cell-based, human", "details": "P. gingivalis stimulated monocytes; PI3K-dependent", "description": "(§3) Antibodies were purchased from Cell Signaling, Beverly, Mass. Blots were visualized by enhanced chemiluminescence. The importance of the PI3K-dependent anti-inflammatory pathway in cotinine-induced inflammatory suppression was also established by pharmacological inhibition of PI3K and GSK-3β using the PI3K antagonists LY294002 (25 μM; Calbiochem®, San Diego, Calif.) and wortmannin (100 nM, Calbiochem); and the GSK-3β inhibitor SB216763 (6 μM; Sigma). Activated PI3K produces PIP3 that, in turn, activates downstream signaling components of the PI3K pathway. Therefore, cells were also analyzed for cotinine-induced PI3K activation by, assaying the ability of PI3K to produce PIP3. Levels of PIP3 were determined by ELISA using a competitive inhibition assay (Echelon Bioscience, Salt Lake City, Utah). The specific PI3K inhibitor LY294002 was used at 25 μM and served as a control to block PI3K activity."}, "[9]": {"tested_on": "GSK-3β (Ser9)", "test": "Phosphorylated GSK-3β western blot in monocytes", "assay_type": "cell-based, human", "details": "P. gingivalis stimulated monocytes", "description": "as §3"}, "[10]": {"details": "cited from earlier work"}, "[11]": {"tested_on": "nicotinic receptors in the brain", "details": "cited from earlier work"}, "[12]": {"tested_on": "striatal dopamine release", "details": "cited from earlier work"}, "[13]": {"tested_on": "neutrophils", "details": "cited from earlier work"}, "[14]": {"details": "cited from earlier work; for Terminal elimination half-life: in vivo"}, "[15]": {"tested_on": "primary monocytes", "test": "Viability of primary monocytes", "method": "Monocytes were pre-treated for 2 h with nicotine (triangles) or cotinine (squares) then stimulated with P. gingivalis (MOI=10) for 20 h. Cell-free supernatants were harvested by centrifugation and levels of TNF-α were determined by ELISA.\n(A-E) Control monocytes (closed squares) and monocytes pre-treated with cotinine (100 ng ml^−1) for 2 hours (open squares) were stimulated with P. gingivalis 33277 LPS (0-10^5 ng ml^−1) for 24 hours. Cell-free supernatants were harvested by centrifugation and levels of pro-inflammatory cytokines (A-E) and IL-10 (E) were determined by ELISA. Data are the arithmetic mean±s.d. of 3 experiments."}, "[16]": {"details": "cotinine 100 ng ml^−1 2 h, P. gingivalis 33277 LPS 0-10^5 ng ml^−1 24 h"}, "[17]": {"details": "cotinine 1000 ng/ml 2 h, LPS 0 to 1×10^4 ng/ml 24 h"}},
  "note": "“Also recorded” adds a separate entry of the source.",
  "data": [
    {"smiles": "CN1C(=O)CC[C@H]1c1cccnc1", "note": "[cotinine, (S)-1-methyl-5-(3-pyridinyl)-2-Pyrrolidinone]", "values": [
      {"measurement": "TNF release compared to cells stimulated with P. gingivalis alone", "setting": "[1]", "result": "equally as effective as nicotine; also recorded: produce significantly less TNF-α"},
      {"measurement": "IL-1β release", "setting": "[2]; [16]", "result": "dramatically suppresses"},
      {"measurement": "IL-6 release", "setting": "[2]; [16]", "result": "dramatically suppresses"},
      {"measurement": "IL-12/IL-23 p40 subunit release", "setting": "[2]; [16]", "result": "dramatically suppresses"},
      {"measurement": "TNF-α release", "setting": "[2]; [16]", "result": "dramatically suppresses"},
      {"measurement": "IFN-γ production", "setting": "[2]; [17]", "result": "suppressed"},
      {"measurement": "IL-1β production", "setting": "[2]; [17]", "result": "suppressed"},
      {"measurement": "IL-6 production", "setting": "[2]; [17]", "result": "suppressed"},
      {"measurement": "IL-12/IL-23 p40 production", "setting": "[2]; [17]", "result": "suppressed"},
      {"measurement": "TNF-α production", "setting": "[2]; [17]", "result": "suppressed"},
      {"measurement": "IL-10 release", "setting": "[3]; cotinine 0 to 10,000 ng/ml 2 h, purified LPS 24 h", "result": "increased the production and release; also recorded: enhanced production; also recorded: increases the release"},
      {"measurement": "IL-10 production", "setting": "[3]; cotinine 100 ng ml^−1 2 h, P. gingivalis 33277 LPS 24 h", "result": "enhancing production; also recorded: augments IL-10 production"},
      {"measurement": "LPS-induced NF-κB (SEAP activity)", "setting": "[4]", "result": "not affected; also recorded: not influenced"},
      {"measurement": "IL-10 production", "setting": "[5]; cotinine pre-treatment 2 h, LPS 1 μg ml^−1 24 h", "result": "augment IL-10 production"},
      {"measurement": "Viability of THP-1 or THP-1 Blue cells compared to LPS alone", "setting": "[6]", "result": "no statistically significant effect"},
      {"measurement": "PIP3 levels (PI3K activation)", "setting": "[7]", "result": "potently augments the activation of PI3K; also recorded: increased PIP3 levels"},
      {"measurement": "Levels of phosphorylated (active) Akt", "setting": "[8]", "result": "enhances"},
      {"measurement": "Levels of phosphorylated (inactive) GSK3-β", "setting": "[9]", "result": "augments"},
      {"measurement": "Vasoactivity (heart rate, blood pressure, skin temperature)", "setting": "[10]; cotinine infusions in humans", "result": "may not be vasoactive"},
      {"measurement": "Addictiveness", "setting": "[10]; in vivo", "result": "non-addictive"},
      {"measurement": "Safety of administration to humans", "setting": "[10]; levels as high as 10 times that attained from cigarette smoking", "result": "safe"},
      {"measurement": "Upregulation of nicotinic receptor expression in the brain", "setting": "[11]", "result": "does not appear to upregulate"},
      {"measurement": "Striatal dopamine release", "setting": "[12]", "result": "evokes striatal dopamine release"},
      {"measurement": "Release of free radicals from neutrophils", "setting": "[13]", "result": "suppresses the release of free radicals from neutrophils"},
      {"measurement": "Systemic concentration relative to nicotine", "setting": "[14]; humans", "result": "ten-fold"},
      {"measurement": "Terminal elimination half-life", "setting": "[14]", "result": "sixteen"},
      {"measurement": "Systemic levels in second-hand smokers", "setting": "[14]; second-hand smokers", "result": "1 to 15", "unit": "ng/mL"},
      {"measurement": "Mean concentration in smokers", "setting": "[14]", "result": "200 to 500", "unit": "ng/mL"},
      {"measurement": "Viability of primary monocytes compared to P. gingivalis alone", "setting": "[15]; cotinine 0 to 10^5 ng ml^−1", "result": "no statistically significant effect"},
      {"measurement": "Viability of primary monocytes compared to LPS alone", "setting": "[15]; cotinine 100 ng ml^−1", "result": "no statistically significant effect"}
    ]},
    {"smiles": "Cn1cc(C2=C(c3ccc(Cl)cc3Cl)C(=O)NC2=O)c2ccccc21", "note": "[SB216763]", "values": [
      {"measurement": "IL-10 production", "setting": "[5]; GSK-3β inhibitor SB216763 6 μM, LPS", "result": "enhances IL-10 production in response to LPS"},
      {"measurement": "Potency as inducer of IL-10 relative to cotinine", "setting": "[5]; SB216763 versus cotinine 10 ng ml^−1, p<0.05", "result": "significantly less potent inducer of IL-10 than cotinine; also recorded: less potent than even low doses of cotinine"}
    ]},
    {"smiles": "CNC1(C)C2CCC(C2)C1(C)C", "note": "(centres unmarked) [mecamylamine]", "values": [
      {"measurement": "Effect of non-selective nAChR antagonist on cotinine-induced inflammatory suppression", "setting": "[1]; mecamylamine 10 μM pre-incubation", "result": "nAChR-dependent phenomenon"}
    ]},
    {"smiles": "CN1CCC[C@H]1c1cccnc1", "note": "[nicotine, (S)-3-(1-methyl-2-pyrrolidinyl)pyridine, reference compound]", "values": [
      {"measurement": "TNF release compared to cells stimulated with P. gingivalis alone", "setting": "[1]", "result": "inhibits the release of TNF; also recorded: produce significantly less TNF-α"},
      {"measurement": "PIP3 levels (PI3K activation)", "setting": "[7]", "result": "increased PIP3 levels"},
      {"measurement": "Terminal elimination half-life", "setting": "[14]", "result": "two"},
      {"measurement": "Fraction of nicotine converted to cotinine", "setting": "[14]; metabolized by the liver", "result": "up to 80%"},
      {"measurement": "Mean concentration in smokers", "setting": "[14]", "result": "~30", "unit": "ng/mL"}
    ]}
  ]
}
